US20230242887A1, “ONCOLYTIC VIRUS CARRYING E-CADHERIN AND USES THEREOF” (Ohio State Innovation Foundation, priority 2017, published 2023)

Assays:
OV-CDH1 = experiment: Viral replication inhibition assay (HSV-1 genome copies by real-time PCR); assay type: cell-based; conditions: Human alphaherpesvirus 1; Gli36 cells, MOI of 5, 48 h
Procedure: (§1) FIGS. 12A-12B illustrate the safety test for OV-CDH1. FIG. 12(A) illustrates that Gli36 cells were infected with OV-Q1 or OV-CDH1 at a MOI of 5. Two hours after infection, the infection media were replaced with fresh media with increasing concentrations of Acyclovir. Forty-eight hours after infection, the cells were harvested for DNA extraction. The HSV-1 genome copy numbers in OV-Q1 and OV-CDH1 infected cells were measured by real-time PCR with primers and a probe against gD. The copy number vs. dose curves were established to evaluate the inhibitory effect of Acyclovir against oHSV replication (n=3). FIG. 12(B) illustrates survival curves of BLAB/c mice treated with wild-type HSV-1 (F strain), OV-Q1 or OV-CDH1 at the dose of 1×10^6 via i.c. or i.v injections.
(§2) OV-Q1 and OV-CDH1 both carry the HSV-1 TK gene, which makes the viruses sensitive to the antiviral acyclovir and its derivatives. […] For evaluating the in vivo safety of OV-CDH1, BALB/c mice were intravenously (i.v.) or i.c. injected with wild-type HSV-1 (F strain), OV-Q1, or OV-CDH1 at the dose of 1×10^6 PFU, which is the maximum dose due to the limited administration volume for i.c. injection. […] Mice treated with OV-Q1 and OV-CDH1 through i.v. or i.c. injections all survived over 4 weeks until they were euthanized and not monitored further (FIG. 12B). […]

OV-Q1 = experiment: as above; assay type: cell-based; conditions: Human alphaherpesvirus 1, GLI36, 48 h, read-out: IC50 of inhibition of OV-Q1 replication
Procedure: as §1, §2

Question: With `Nc1nc2c(ncn2COCCO)c(=O)[nH]1` [acyclovir] as the compound, how does the IC50 (OV-CDH1) read?
Answer: 2670 nM

Question: And the IC50 (OV-Q1)?
Answer: 1670 nM
